Test results taken from US20240269292A1.
Entries after “also recorded” stand apart in the source; their conditions may differ. Non-standard residues stand in square brackets, D forms with d. Residues, ends and D or L forms follow the SMILES beside them. Dmt = Cc1cc(O)cc(C)c1C[C@H](N)C(=O)O

Columns and labels:
[1] = Theoretical in vivo release pharmacokinetics from XRDDS in vitreous cavity of rabbit eyes (FIGS. 31-32); details: theoretical data
From the text: (§1) FIG. 31 illustrates theoretical in vivo release pharmacokinetic data comparing release kinetics of unmodified EY005 from the novel extended-release drug delivery system to that of two EY005 prodrugs, each of which is also formulated in the novel extended-release drug delivery system and injected into the vitreous cavity of rabbit eyes.
as §1, with “32” for “31”

[2] = Hydrophobicity and aqueous solubility; type: physicochemical
[3] = In vivo kinetics after intravitreal Mito XR bolus in rabbit eyes, LC/MS
[4] = test system: rabbit RPE; assay: Rabbit ocular hydroquinone (HQ) model of dry AMD; type: in vivo
[5] = test system: RPE cells of rabbit eyes; assay: Rabbit ocular hydroquinone (HQ) model of dry AMD (DCFDA, vimentin, phalloidin on RPE flatmounts); type: in vivo
Procedure: FIG. 12 illustrates one example of a relevant animal model, specifically a rabbit-based protocol used to characterize the prodrugs of mitochondrial targeted tetrapeptides described herein. In this model, HQ (0.05 mL, 250 mM HQ) is injected into the vitreous cavity of rabbit eye on day 0 and day 1, and drug of interest (mitochondrial targeted peptide or prodrug thereof) or control (PBS) solution is injected into the same vitreous cavity of the rabbit eye at day 2. At day 4, the rabbit is euthanized, and eyes recovered for histologic analysis of retina and RPE flatmounts for various metrics, including cellular oxidation (DCFDA), as a surrogate of mitochondrial dysfunction, as well as for other cellular markers.
The rabbit hydroquinone (HQ) model of dry AMD (FIG. 12) was induced and flatmount of retinal pigment epithelium (RPE) were isolated.
Scores were determined by masked expert graders in at least 100 RPE cells from at least 3 eyes per condition.
A rabbit model of mitochondrial dysfunction is also used to assay bioactivity of MTT and prodrugs derived thereof. […] On day 2, the MTT (e.g., EY005, 15 μM) were injected IVT. On day 3, a fluorogenic dye that measures hydroxyl, peroxyl and other reactive oxygen species (e.g., DCFDA) was injected IVT, and tissues were collected 12 hours later. RPE flatmounts were processed for multiple readouts: oxidation byproducts (DCFDA, FIG. 13) and measures of RPE-associated extracellular matrix (cytosolic vimentin expression, FIG. 14), and RPE cell dysmorphology (i.e., actin cytoskeleton (phalloidin), FIG. 14). All were analyzed and quantified by microscopy.
For example, in the rabbit ocular hydroquinone model, systemic administration of the maximally tolerated human dose of mitochondrial-targeted peptide (EY005) allometrically scaled for the rabbit, only partially restores RPE actin cytoskeletal integrity (FIG. 15D). In contrast, IVT injection of EY005 results in downregulation of RPE vimentin expression (FIG. 14) and restoration of normal RPE actin cytoskeleton integrity (FIG. 15C). […] IVT EY005 treatment produced an approximately 75% reduction of oxidation byproducts. […] In this setting, retinal and RPE tissue levels achieved by IVT administration in rabbits are substantially higher than tissue levels obtained by SQ administration of the maximally tolerated human dose allometrically scaled for rabbits.

[6] = In vitro release kinetics of pilot formulation of Mito XR; type: physicochemical; details: same complexation agent and dispersal medium as Mito XR
[7] = rabbit
From the text: In some examples, cleavage and release of the free bioactive mitochondrial targeted tetrapeptide can be assessed following in vivo injection of the implant containing the prodrug within the extended release drug delivery system into the vitreous cavity or periocular tissues of a preclinical animal model (e.g., mouse, rat, rabbit, pig, etc.) (FIG. 29), wherein ocular tissue is recovered, and analytic methods such as HPLC or mass spectrometry can be used to calculate the amount of free bioactive mitochondrial targeted tetrapeptide and intact prodrug, at various timepoints after in vivo injection.

[8] = test system: retinal pigment epithelium (RPE) cells; type: cell-based
Procedure: (§2) Cells are then treated with drug (or control phosphate-buffered saline (PBS) solution) and assayed for effects on mitochondrial dysfunction and other cellular changes.
Mitochondrial dysfunction is manifest as increased flavoprotein autofluorescence (upper panels) and as dysmorphology of the actin cytoskeleton (lower panels). […] EY005-stearyl was also preincubated with carboxyesterase (0.1 μg/mL) in separate media.
(§3) Mitochondrial dysfunction can be modeled using in vitro cell culture systems relevant to retinal disease. In one such system, retinal pigment epithelium (RPE) cells are cultured to post-confluence to establish a differentiated cell monolayer and are then assayed for mitochondrial dysfunction and effect of drugs for treatment of mitochondrial dysfunction (FIG. 5). In this model, mitochondrial dysfunction is induced by two exposures to nonlethal doses of hydroquinone (HQ) at day −3 and day 0. Hydroquinone (HQ), a well-known environmental toxicant ubiquitously present in Western lifestyle, is a biochemical inducer of mitochondrial dysfunction. When HQ is added to fully differentiated RPE cell cultures, HQ competes with mitochondrial ubiquinone, siphoning high-energy electrons from electron transport chain, which then reduces oxygen into superoxide, leading to cardiolipin peroxidation and mitochondrial dysfunction. Cells are then treated with a drug of interest (mitochondrial targeted peptide drug or a prodrug thereof) or control (phosphate-buffered saline (PBS) solution and assayed for effects on mitochondrial dysfunction, as measured by microscopy of flavoprotein autofluorescence (a measure of mitochondrial electron transport chain complex II decompensation) (FIG. 6).

[9] = test system: mouse retinal tissues; assay: Mouse experimental retinal vein occlusion (RVO) model; type: in vivo
From the text: Control, untreated mice show undetectable FP-AF and superoxide.
Control, untreated mice show normal synaptic markers.
FIGS. 11H-111 show visual function as quantified by electroretinogram (ERG) in mice treated with control, RVO and RVO with EY005 pretreatment or EY005 post-treatment. B-wave amplitudes were quantified from at least 5 eyes for each condition.

[10] = Accelerated in vitro release assay with complexation agents in methyl laurate; type: physicochemical; details: EY005 MTT formulated with various complexation agents, methyl laurate dispersal medium
From the text: In all cases, all EY005 was rapidly released, in some cases within hours, and in all cases by day 3.

[11] = test system: retinal pigment epithelium (RPE) cells; assay: Actin cytoskeleton disorganization (phalloidin) in HQ-exposed RPE cells; type: cell-based; details: 5 μM
Procedure: as §2
as §3, with “When HQ is added to fully differentiated RPE cell cultures, HQ competes with mitochondrial ubiquinone, siphoning high-energy electrons from electron transport chain, which then reduces oxygen into superoxide, leading to cardiolipin peroxidation and mitochondrial dysfunction.” left out

[12] = test system: retinal pigment epithelium (RPE) cells; assay: Dysregulated extracellular matrix (vimentin) in HQ-exposed RPE cells; type: cell-based; details: ≥5 μM
Procedure: as §2
as §3, with “When HQ is added to fully differentiated RPE cell cultures, HQ competes with mitochondrial ubiquinone, siphoning high-energy electrons from electron transport chain, which then reduces oxygen into superoxide, leading to cardiolipin peroxidation and mitochondrial dysfunction.” left out

[13] = test system: retinal pigment epithelium (RPE) cells; assay: HQ-induced mitochondrial dysfunction in RPE cells (flavoprotein autofluorescence); type: cell-based; details: HQ-exposed RPE cells, versus elamipretide or native EY005
Procedure: as §2
as §3, with “When HQ is added to fully differentiated RPE cell cultures, HQ competes with mitochondrial ubiquinone, siphoning high-energy electrons from electron transport chain, which then reduces oxygen into superoxide, leading to cardiolipin peroxidation and mitochondrial dysfunction.” left out

[14] = rabbit, single IVT dose of 15 μg, 36 hrs. after drug treatment
[15] = cultured RPE cells, dose-response
[16] = cultured RPE cells, high dose (≥5 μM)

Cc1cc(O)cc(C)c1C[C@H](NC(=O)[C@H](N)CCCNC(=N)N)C(=O)N[C@@H](CCCCN)C(=O)N[C@@H](Cc1ccccc1)C(=O)O [EY005, H-d-Arg-DMT-Lys-Phe] (H-[dR][Dmt]KF-OH)
time to nearly complete release of unmodified EY005 from XRDDS [1]: approximately 30 days
Hydrophobicity [2]: highly hydrophilic
Aqueous solubility ([2]; native form): high aqueous solubility
Residual drug in recovered bolus ([3]; bolus formulation of EY005 native peptide): no residual drug
Retinal tissue concentrations ([3]; through 7-week timepoint (Mito XR), week 3.5 (EY005 native peptide bolus)): nearly undetectable
Reversal of RPE cytoskeletal dysmorphology ([4]; 0.9 mg/kg subcutaneous once daily): only partially effective
Efficacy of intravitreal versus subcutaneous administration ([4]; intravitreal injection): significantly more effective
reversal of mitochondrial dysfunction (oxidant species) in RPE of rabbit eyes ([5]; rabbit HQ model, 15 μM IVT, within 36 hours of treatment): reduced oxidant species; also recorded: potent for reversal of mitochondrial dysfunction
reversal of RPE cytoskeletal dysmorphology, intravitreal ([5]; rabbit HQ model, intravitreal 15 μM): near complete reversal of RPE cytoskeletal dysmorphology
reversal of RPE cytoskeletal dysmorphology, subcutaneous ([5]; rabbit HQ model, subcutaneous 0.9 mg/kg once daily): only partial reversal of RPE cytoskeletal dysmorphology
retinal toxicity ([5]; rabbit, single IVT dose of 15 μg): no retinal toxicity was observed
reduction of cytoskeleton disorganization (phalloidin) [5, 14]: approximately 80%
reduction of oxidation byproducts (DCFDA) [5, 14]: approximately 75%
reversal of vimentin stain [5, 14]: approximately 90%
release of native peptide formulated identically to Mito XR [6]: extremely rapid release; also recorded: excessive release
residual drug in recovered bolus, native peptide formulation ([7]; IVT bolus formulation of EY005 native peptide): contained no EY005 native peptide; also recorded: no residual drug in the recovered bolus
time by which tissue concentrations were nearly undetectable ([7]; IVT identical bolus formulation containing EY005 native peptide): ≤ 3.5 week
time beyond which EY005 tissue levels were not detectable ([7]; IVT multiphasic colloidal suspension bolus of EY005 native peptide): ≤ 21 days
reversal of HQ-induced mitochondrial dysfunction (flavoprotein autofluorescence) ([8]; HQ-exposed cultured RPE cells): reversal of induced mitochondrial dysfunction; also recorded: near complete reversal of mitochondrial dysfunction
efficacy and potency for reduction of flavoprotein autofluorescence compared to elamipretide ([8]; HQ-exposed cultured RPE cells, dose-response): equivalent efficacy and potency; also recorded: comparable or equivalent dose-response and potency to elamipretide
efficacy and potency for reversal of actin cytoskeleton disorganization compared to elamipretide [8, 15]: equivalent efficacy and potency
efficacy and potency for reversal of dysregulated extracellular matrix (vimentin) compared to elamipretide [8, 15]: equivalent efficacy and potency
reversal of actin cytoskeleton disorganization (phalloidin staining) [8, 16]: reversal of actin cytoskeleton disorganization
reversal of dysregulated extracellular matrix (vimentin expression) [8, 16]: reversal of dysregulated extracellular matrix
markers of mitochondrial dysfunction (flavoprotein autofluorescence and superoxide) following RVO ([9]; mouse, 3 mg/kg BID subcutaneous): significantly attenuates both markers of mitochondrial dysfunction
synaptic markers (SV2, ZNP-1) in inner and outer plexiform layers following RVO ([9]; mouse, 3 mg/kg BID subcutaneous, pretreatment or posttreatment): significantly prevents (pretreatment) and reverses (posttreatment) loss of synaptic markers
ERG B-wave amplitude following RVO ([9]; mouse, pretreatment or post-treatment): significantly prevented or reversed loss of B-wave amplitude
efficacy in treatment of mouse model of RVO ([9]; systemic dose greater than the maximally tolerated dose in humans (allometrically scaled)): partially effective
time by which all EY005 was released [10]: ≤ 3 days
Reversal of actin cytoskeleton disorganization [11]: restores normal RPE cell morphology
Reversal of dysregulated extracellular matrix (vimentin) [12]: reverses dysregulation of RPE extracellular matrix
Potency for reversal of mitochondrial dysfunction relative to comparator [13]: equipotent to elamipretide
